{"source": "patent US20240325458A1", "about": "“COMPOSITION FOR PRODUCING BILE ACIDS” (priority 2020, published 2024)", "key": {"[1]": {"system": "T helper 17 (TH17) cells", "conditions": "reported [30]; cited from earlier work"}, "[2]": {"system": "Clostridioides difficile", "conditions": "known [36, 40, 41]; cited from earlier work"}, "[3]": {"system": "C. difficile 630", "experiment": "Bacterial growth inhibition assay (OD 600)", "type": "cell-based, Clostridioides difficile", "description": "(§1) Clostridioides difficile strain 630 (ATCC BAA-1382), Clostridioides difficile VPI 10463 (ATCC 43255), vancomycin-resistant Enterococcus faecium (ATCC 700221), Streptococcus dysgalactiae subsp. equisimilis (ATCC 12394), carbapenemase-resistant Klebsiella pneumoniae (ATCC BAA-1705), and Salmonella enterica subsp. enterica (ATCC 14028) were purchased from the American Type Culture Collection (ATCC).\n(§2) From fresh colonies grown on BHK blood agar plates (Kyokuto), a primary suspension adjusted to OD 600 of 0.63 was prepared in WCA medium. Subsequently, the secondary suspension was prepared by diluting 100 μL of primary suspension into a total of 2.4 mL of medium. 10 μL of secondary suspension was inoculated to a total of 200 μL of medium containing varying concentrations ([…], 6.25, 12.5, 25, and 50 μM) of bile acids; DCA, LCA, 3-oxoLCA, 3-oxoalloLCA, isoLCA, alloLCA, and isoalloLCA. The growth of bacteria was monitored every 0.5-1 hr by OD 600 measurement using a microplate reader (Sunrise Thermo, Tecan) set at 37° C. with a 60 see shaking before each time point. For determining the minimal inhibitory concentration, 10 μL of secondary suspension was inoculated into a total of 200 μL of medium containing 0.25 to 50 μM of isoalloLCA.\nTherefore, next, it was investigated whether 3-oxoLCA and isoalloLCA had the ability to inhibit the growth of C. difficile. […]"}, "[4]": {"system": "C. difficile VPI10463", "experiment": "Bacterial growth inhibition assay (OD 600)", "type": "cell-based, Clostridioides difficile", "conditions": "toxin-producing strain", "description": "as §1, §2"}, "[5]": {"system": "vancomycin-resistant Enterococcus faecium (VRE)", "experiment": "Bacterial growth inhibition assay (OD 600)", "type": "cell-based", "description": "as §1, §2"}, "[6]": {"system": "gram-negative pathogens", "experiment": "Bacterial growth inhibition assay, gram-negative pathogen panel", "type": "cell-based", "conditions": "all bacteria in the gram-negative pathogen panel"}, "[7]": {"system": "C. difficile 630", "experiment": "Electron microscopy (SEM/TEM) after isoalloLCA treatment", "type": "cell-based, Clostridioides difficile", "conditions": "8 μM isoalloLCA, 5 hours, WCA medium", "protocol": "(§3) FIG. 4C is typical scanning electron microscope images (SEM, left panels) and transmission electron microscope images (TEM, right panels) when C. difficile 630 and VRE were cultured for 5 hours in a WCA medium containing or not containing 8 μM isoalloLCA. The scale bars indicate 1.0 μm (SEM), 200 nm (C. difficile 630 TEM), and 500 nm (VRE TEM). The arrows indicate the shape change after isoalloLCA treatment.\n(§4) Bacterial cultures incubated with or without isoalloLCA were collected after 5 hr incubation for electron microscopy samples. For scanning electron microscopy, 10-30 μL of culture was spotted on the Nano percolator membrane (JEOL) and fixed in freshly prepared 2.5% glutaraldehyde solution. After overnight fixation at 4° C., samples were washed in 0.1 M phosphate buffer (pH 7.4, Muto Pure Chemicals), fixed with 1.0% osmium tetroxide (TAAB Laboratories) for 2 hr at 4° C., and treated with a series of increasing concentrations of ethanol. Samples were dried up with critical point dryer (CPD300, Leica Biosystems) and coated with about 2 nm thickness of osmium using a conductive osmium coater (Neoc-ST, Meiwafosis). SEM images were acquired using the SU6600 (Hitachi High Tech) at electron voltage of 5 keV.\n(§5) For transmission electron microscopy, microbial pellets were prepared by centrifugation (13,000 rpm, 2 min) from 25 mL bacterial cultures. […]"}, "[8]": {"system": "VRE", "experiment": "Electron microscopy (SEM/TEM) after isoalloLCA treatment", "type": "cell-based, Enterococcus faecium", "conditions": "8 μM isoalloLCA, 5 hours, WCA medium", "protocol": "as §3, §4, §5"}, "[9]": {"system": "gram-negative symbiotic bacteria", "experiment": "Growth inhibition of intestinal symbiotic bacteria", "type": "cell-based", "conditions": "most gram-negative symbiotic bacteria such as Bacteroides; WCA and BHI media"}, "[10]": {"system": "gram-positive symbiotic bacteria", "experiment": "Growth inhibition of intestinal symbiotic bacteria", "type": "cell-based"}, "[11]": {"system": "Lactobacillus strain", "experiment": "Growth inhibition of intestinal symbiotic bacteria", "type": "cell-based"}, "[12]": {"system": "C. sporogenes, C. indolis, and C. HGF2 (innocuum)", "experiment": "Scanning electron microscopy of symbiotic bacteria", "type": "cell-based", "conditions": "2.5 μM isoalloLCA, 5 hours, WCA medium", "protocol": "FIG. 16B is a set of photographs showing typical results obtained by observing C. difficile 630, C. sporogenes, C. indoli, and C. HGF2 (innocuum) with a scanning electron microscope after culturing for 5 hours in a WCA medium containing control or 2.5 μM isoalloLCA. […] Scale bars indicate 5.0 μm and 1.0 μm. The arrowheads indicate a shape change after isoalloLCA treatment.\nas §4"}, "[13]": {"system": "human fecal microbiota", "experiment": "Culturing human feces with bile acids, 16S rRNA gene sequencing", "type": "cell-based", "conditions": "50 μM, 48 hr", "protocol": "Human fecal culture was conducted in 96-deep well plates (Treff Lab) using stool samples obtained from young and healthy donors. […] Fecal cultures with a final concentration of 50 μM bile acids (LCA, 3-oxoLCA, and isoalloLCA) were incubated anaerobically for 48 hr at 37° C. DNA was extracted from the fecal sample culture for 16S metagenomic sequencing as described above.\nIn addition, in order to assess the effects of isoalloLCA on the complex normal intestinal microbiota, human fecal microbiota from young, healthy sample donors were cultured using isoalloLCA, 3-oxoLCA, LCA, or control systems and analyzed for bacterial microbiota changes by 16S rRNA gene sequencing."}, "[14]": {"system": "Treg cells", "conditions": "reported [30]; cited from earlier work"}, "[15]": {"target": "estrogen receptor R (ER) (Homo sapiens, UniProt Q92731)", "sequence (Q92731 whole entry)": "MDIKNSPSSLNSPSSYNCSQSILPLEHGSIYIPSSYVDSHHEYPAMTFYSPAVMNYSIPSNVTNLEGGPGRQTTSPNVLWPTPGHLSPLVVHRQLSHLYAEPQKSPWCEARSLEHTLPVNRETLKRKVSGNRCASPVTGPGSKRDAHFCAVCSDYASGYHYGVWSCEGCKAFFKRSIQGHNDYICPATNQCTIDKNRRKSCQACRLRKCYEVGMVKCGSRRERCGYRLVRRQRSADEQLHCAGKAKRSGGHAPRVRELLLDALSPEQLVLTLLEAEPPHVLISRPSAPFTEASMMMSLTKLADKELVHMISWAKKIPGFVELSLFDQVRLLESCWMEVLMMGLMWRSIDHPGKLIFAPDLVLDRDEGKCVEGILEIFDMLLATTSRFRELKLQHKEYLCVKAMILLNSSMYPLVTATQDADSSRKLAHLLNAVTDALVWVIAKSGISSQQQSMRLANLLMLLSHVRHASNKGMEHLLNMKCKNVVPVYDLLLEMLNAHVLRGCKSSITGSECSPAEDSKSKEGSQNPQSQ", "conditions": "reported [63, 64]; cited from earlier work"}, "[16]": {"system": "prostate cancer cell", "conditions": "by reducing E-cadherin expression; reported [63, 64]; cited from earlier work"}, "[17]": {"target": "T1, androgen receptor (AR) (Homo sapiens, UniProt P10275)", "T1 sequence (P10275 1-920)": "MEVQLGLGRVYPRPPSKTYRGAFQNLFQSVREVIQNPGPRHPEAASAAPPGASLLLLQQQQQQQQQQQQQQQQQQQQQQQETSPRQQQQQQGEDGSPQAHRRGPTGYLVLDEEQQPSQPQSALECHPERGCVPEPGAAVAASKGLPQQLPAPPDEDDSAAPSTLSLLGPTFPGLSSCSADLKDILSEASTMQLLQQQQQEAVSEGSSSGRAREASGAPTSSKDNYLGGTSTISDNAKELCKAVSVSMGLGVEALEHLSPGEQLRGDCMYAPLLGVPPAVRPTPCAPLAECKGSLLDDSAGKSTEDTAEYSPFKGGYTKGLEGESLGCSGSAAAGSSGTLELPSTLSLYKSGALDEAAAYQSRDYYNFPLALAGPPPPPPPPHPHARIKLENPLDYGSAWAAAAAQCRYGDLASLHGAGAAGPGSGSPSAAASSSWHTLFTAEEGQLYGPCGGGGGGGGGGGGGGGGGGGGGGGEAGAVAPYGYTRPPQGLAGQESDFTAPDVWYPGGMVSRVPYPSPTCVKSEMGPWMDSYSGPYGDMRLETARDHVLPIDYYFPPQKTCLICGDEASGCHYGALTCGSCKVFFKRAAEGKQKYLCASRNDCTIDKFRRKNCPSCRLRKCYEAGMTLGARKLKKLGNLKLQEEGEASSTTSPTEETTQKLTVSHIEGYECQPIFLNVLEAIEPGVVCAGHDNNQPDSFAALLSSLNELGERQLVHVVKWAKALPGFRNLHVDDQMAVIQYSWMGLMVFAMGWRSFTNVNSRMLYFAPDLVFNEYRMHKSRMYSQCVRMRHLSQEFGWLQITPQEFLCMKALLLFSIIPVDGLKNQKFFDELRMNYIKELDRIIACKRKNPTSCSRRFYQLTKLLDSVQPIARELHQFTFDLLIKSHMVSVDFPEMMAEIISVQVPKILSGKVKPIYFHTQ", "conditions": "reported [28, 63, 64]; cited from earlier work"}, "[18]": {"conditions": "compared to other bile acid compounds"}}, "data": [{"smiles": "C[C@H](CCC(=O)O)[C@H]1CC[C@H]2[C@@H]3CC[C@@H]4C[C@@H](O)CC[C@]4(C)[C@H]3CC[C@]12C", "note": "[isoLCA, Iso-lithocholic acid]", "values": [{"measurement": "TH17 cell suppression", "setting": "[1]", "value": "suppress T helper 17 (TH17) cells"}, {"measurement": "inhibition of growth of Clostridioides difficile", "setting": "[2]", "value": "inhibiting the growth"}]}, {"smiles": "C[C@H](CCC(=O)O)[C@H]1CC[C@H]2[C@@H]3CC[C@H]4C[C@@H](O)CC[C@]4(C)[C@H]3CC[C@]12C", "note": "[isoalloLCA, Iso-allo-lithocholic acid]", "values": [{"measurement": "minimum inhibitory concentration (MIC90) required to prevent growth of 90% or more", "setting": "[3]; WCA medium", "value": 2.0, "unit": "µM"}, {"measurement": "growth inhibition", "setting": "[3]; in vitro, optical density over time", "value": "strongly inhibited the growth"}, {"measurement": "growth inhibition", "setting": "[4]", "value": "Strong growth inhibition"}, {"measurement": "growth inhibition", "setting": "[5]", "value": "Strong growth inhibition"}, {"measurement": "resistant at the highest concentration tested", "setting": "[6]", "value": "> 50", "unit": "µM"}, {"measurement": "bactericidal effect, morphological and hyperfine structure changes", "setting": "[7]", "value": "bactericidal and results in morphological changes and hyperfine structure changes"}, {"measurement": "bactericidal effect, morphological and hyperfine structure changes", "setting": "[8]", "value": "bactericidal and results in morphological changes and hyperfine structure changes"}, {"measurement": "effect on growth", "setting": "[9]", "value": "did not significantly affect the growth"}, {"measurement": "MIC90 value of the symbiotic strains relative to pathogens", "setting": "[10]", "value": "generally higher than that of the pathogens"}, {"measurement": "resistance of symbiotic strain in BHI medium compared to WCA medium", "setting": "[10]; BHI medium rich in peptone and amino acids", "value": "increased resistance"}, {"measurement": "effect on growth", "setting": "[10]; WCA and BHI media", "value": "reliably inhibited the growth"}, {"measurement": "resistance to the inhibitory effect", "setting": "[11]", "value": "highly resistant"}, {"measurement": "cell wall structure by scanning electron microscopy", "setting": "[12]", "value": "cell wall structure of the symbiotic bacteria was maintained"}, {"measurement": "change in gram-negative bacteria (Bacteroides, Alistipes)", "setting": "[13]; [18]", "value": "corresponding increase"}, {"measurement": "change in gram-positive bacteria (Clostridium, Faecalibacterium, Bifidobacterium, Streptococcus)", "setting": "[13]; [18]", "value": "more pronounced decrease"}, {"measurement": "α-diversity (Shannon index) of fecal culture", "setting": "[13]; feces of young healthy donors", "value": "not significantly affected"}, {"measurement": "bacterial community structure", "setting": "[13]; phylum level", "value": "clear widespread change in the bacterial community structure"}, {"measurement": "Treg cell induction", "setting": "[14]", "value": "induces Treg cells"}]}, {"smiles": "C[C@H](CCC(=O)O)[C@H]1CC[C@H]2[C@@H]3CC[C@@H]4CC(=O)CC[C@]4(C)[C@H]3CC[C@]12C", "note": "[St 3-oxoLCA, 3-Oxo-lithocholic acid, reference compound]", "values": [{"measurement": "TH17 cell suppression", "setting": "[1]", "value": "suppress T helper 17 (TH17) cells"}]}, {"smiles": "C[C@]12CC[C@H](O)C[C@@H]1CC[C@@H]1[C@@H]2CC[C@]2(C)[C@@H](O)CC[C@@H]12", "note": "[3β-androstanediol]", "values": [{"measurement": "estrogen receptor activation", "setting": "[15]", "value": "activates estrogen receptor R (ER)"}, {"measurement": "prostate cancer cell migration", "setting": "[16]", "value": "inhibits prostate cancer cell migration"}, {"measurement": "binding to AR", "setting": "[17]", "value": "without binding to AR"}]}]}
